Experimental data as given in patent US11331351B2, “Bacillus strains improving health and performance of production animals” (priority 2015, dated 2022).
Values after ≈ are worked out from the molar mass of the structure shown. Like-named read-outs stand apart in the source and are kept apart here. Bridge positions count the residues as written; N and C are the ends. Square brackets hold non-standard residues; d marks the D form. Peptide text beside a SMILES is read from it. * marks the point of attachment. Ileψ(thiazoline)Cys = CC[C@H](C)[C@H](N)C1=N[C@H](C(=O)*)CS1; dOrn = NCCC[C@@H](N)C(=O)O

Assays:
B. subtilis DSM 29871 [1] = format: cell-based, Bacillus subtilis; details: for MIC: Bacillus subtilis
[2] = test system: B. amyloliquefaciens DSM 29869; format: cell-based, Bacillus amyloliquefaciens; details: for MIC: Bacillus amyloliquefaciens
B. subtilis DSM 29870 [3] = format: cell-based, Bacillus subtilis; details: for MIC: Bacillus subtilis
B. subtilis DSM 29871 [4] = details: EFSA Journal 2012; 10(6): 2740; cited from earlier work
[5] = test system: B. amyloliquefaciens DSM 29869; details: EFSA Journal 2012; 10(6): 2740; cited from earlier work
B. subtilis DSM 29870 [6] = details: EFSA Journal 2012; 10(6): 2740; cited from earlier work
Clostridium perfringens = format: in vivo, broiler chickens Cobb×Cobb; details: bacitracin 50 ppm; for Lesion score (d 21): 0 to 3 score; for BWG (g/bird) (d 1-d 28) / Dead birds with necrotic enteritis lesions (%) (d 1-d 28) / FCR (d 1-d 28) / Total mortality (%) (d 1-d 28): infected
[7] = DSM29871, biological replicate MIC 1, 37° C., 20-24 h, read-out: MIC 1
[8] = DSM29871, biological replicate MIC 2, 37° C., 20-24 h, read-out: MIC 2
[9] = DSM29871, biological replicate MIC 3, 37° C., 20-24 h, read-out: MIC 3
[10] = DSM29869, biological replicate MIC 1, 37° C., 20-24 h, read-out: MIC 1
[11] = DSM29869, biological replicate MIC 2, 37° C., 20-24 h, read-out: MIC 2
[12] = DSM29869, biological replicate MIC 3, 37° C., 20-24 h, read-out: MIC 3
[13] = DSM29870, biological replicate MIC 1, 37° C., 20-24 h, read-out: MIC 1
[14] = DSM29870, biological replicate MIC 2, 37° C., 20-24 h, read-out: MIC 2
[15] = DSM29870, biological replicate MIC 3, 37° C., 20-24 h, read-out: MIC 3
[16] = Trial 1, DSM 29870 1.10^9 CFU/kg of feed
[17] = Trial 2, DSM 29870 5.10^8 CFU/kg of feed
[18] = Trial 3, DSM 29870 5.10^8 CFU/kg of feed
[19] = biological replicate MIC 1, 37° C., 20-24 h
[20] = biological replicate MIC 2, 37° C., 20-24 h
[21] = biological replicate MIC 3, 37° C., 20-24 h

Row | Compound | MIC (B. subtilis DSM 29871 [1]; [7]) [µg/mL] | MIC (B. subtilis DSM 29871 [1]; [8]) [µg/mL] | MIC (B. subtilis DSM 29871 [1]; [9]) [µg/mL] | MIC [2, 10] [µg/mL] | MIC [2, 11] [µg/mL] | MIC [2, 12] [µg/mL] | MIC (B. subtilis DSM 29870 [3]; [13]) [µg/mL] | MIC (B. subtilis DSM 29870 [3]; [14]) [µg/mL] | MIC (B. subtilis DSM 29870 [3]; [15]) [µg/mL] | EFSA breakpoints (B. subtilis DSM 29871 [4]) [µg/mL] | EFSA breakpoints [5] [µg/mL] | EFSA breakpoints (B. subtilis DSM 29870 [6]) [µg/mL] | also measured
1 | CCC[C@@H]1C[C@@H](C(=O)N[C@@H]([C@H]2O[C@H](SC)[C@H](O)[C@@H](O)[C@H]2O)[C@H](C)Cl)N(C)C1 [Clindamycin] | 0.5 (≈ 1.18 µM) | 0.25 (≈ 0.588 µM) | 0.5 (≈ 1.18 µM) | 1 (≈ 2.35 µM) | 0.5 (≈ 1.18 µM) | 1 (≈ 2.35 µM) | 0.25 (≈ 0.588 µM) | 0.25 (≈ 0.588 µM) | 0.25 (≈ 0.588 µM) |  |  |  | 
2 | CN[C@H](CC(C)C)C(=O)N[C@H]1C(=O)N[C@@H](CC(N)=O)C(=O)N[C@H]2C(=O)N[C@H]3C(=O)N[C@H](C(=O)N[C@H](C(=O)O)c4cc(O)cc(O)c4-c4cc3ccc4O)[C@H](O)c3ccc(c(Cl)c3)Oc3cc2cc(c3O[C@@H]2O[C@H](CO)[C@@H](O)[C@H](O)[C@H]2O[C@H]2C[C@](C)(N)[C@H](O)[C@H](C)O2)Oc2ccc(cc2Cl)[C@H]1O [Vancomycin] | 0.25 (≈ 0.173 µM) |  |  | 0.25 (≈ 0.173 µM) |  | 0.25 (≈ 0.173 µM) | 0.25 (≈ 0.173 µM) |  |  | 4 | 4 | 4 | MIC (B. subtilis DSM 29871 [1]; DSM29871, read-out: MIC 2): 0.25 µg/mL (≈ 0.173 µM); MIC (B. subtilis DSM 29871 [1]; DSM29871, read-out: MIC 3): 0.25 µg/mL (≈ 0.173 µM); MIC ([2]; DSM29869, read-out: MIC 2): 0.25 µg/mL (≈ 0.173 µM); MIC (B. subtilis DSM 29870 [3]; DSM29870, read-out: MIC 2): 0.25 µg/mL (≈ 0.173 µM); MIC (B. subtilis DSM 29870 [3]; DSM29870, read-out: MIC 3): 0.25 µg/mL (≈ 0.173 µM)
3 | CC[C@H](C)[C@H](N)C1=N[C@H](C(=O)N[C@@H](CC(C)C)C(=O)N[C@H](CCC(=O)O)C(=O)N[C@H](C(=O)N[C@H]2CCCCNC(=O)[C@H](CC(N)=O)NC(=O)[C@@H](CC(=O)O)NC(=O)[C@H](Cc3cnc[nH]3)NC(=O)[C@@H](Cc3ccccc3)NC(=O)[C@H]([C@@H](C)CC)NC(=O)[C@@H](CCCN)NC2=O)[C@@H](C)CC)CS1 [bacitracin] ({Ileψ(thiazoline)Cys}-L[dE]IK[dOrn]I[dF]H[dD]N; lactam 4-C) |  |  |  |  |  |  |  |  |  |  |  |  | Lesion score (d 21) (Clostridium perfringens; [16]): 0.2a; BWG (g/bird) (d 1-d 28) (Clostridium perfringens; [16]): 633ab g/bird; Dead birds with necrotic enteritis lesions (%) (d 1-d 28) (Clostridium perfringens; [16]): 1.6b %; FCR (d 1-d 28) (Clostridium perfringens; [16]): 1.813bc; Total mortality (%) (d 1-d 28) (Clostridium perfringens; [16]): 5.0b %; Lesion score (d 21) (Clostridium perfringens; [17]): 0.6b; BWG (g/bird) (d 1-d 28) (Clostridium perfringens; [17]): 665ab g/bird; Dead birds with necrotic enteritis lesions (%) (d 1-d 28) (Clostridium perfringens; [17]): 6.3c %; FCR (d 1-d 28) (Clostridium perfringens; [17]): 1.759b; Total mortality (%) (d 1-d 28) (Clostridium perfringens; [17]): 12.5bc %; Lesion score (d 21) (Clostridium perfringens; [18]): 0.6a; BWG (g/bird) (d 1-d 28) (Clostridium perfringens; [18]): 645a g/bird; Dead birds with necrotic enteritis lesions (%) (d 1-d 28) (Clostridium perfringens; [18]): 4.7bc %; FCR (d 1-d 28) (Clostridium perfringens; [18]): 1.786bc; Total mortality (%) (d 1-d 28) (Clostridium perfringens; [18]): 15.0a %
4 | Gentamycin |  |  |  |  |  |  |  |  |  | 4 | 4 | 4 | MIC 1 (B. subtilis DSM 29871 [1]; [19]): 0.25 µg/mL; MIC 2 (B. subtilis DSM 29871 [1]; [20]): 0.125 µg/mL; MIC 3 (B. subtilis DSM 29871 [1]; [21]): 0.25 µg/mL; MIC 1 [2, 19]: 0.5 µg/mL; MIC 2 [2, 20]: 0.125 µg/mL; MIC 3 [2, 21]: 0.06 µg/mL; MIC 1 (B. subtilis DSM 29870 [3]; [19]): 0.25 µg/mL; MIC 2 (B. subtilis DSM 29870 [3]; [20]): 0.125 µg/mL; MIC 3 (B. subtilis DSM 29870 [3]; [21]): 0.25 µg/mL
5 | O=C(N[C@H](CO)[C@H](O)c1ccc([N+](=O)[O-])cc1)C(Cl)Cl [Chloramphenicol] | 8 (≈ 24.8 µM) | 4 (≈ 12.4 µM) | 8 (≈ 24.8 µM) | 4 (≈ 12.4 µM) | 4 (≈ 12.4 µM) | 4 (≈ 12.4 µM) | 4 (≈ 12.4 µM) | 8 (≈ 24.8 µM) | 4 (≈ 12.4 µM) | 8 | 8 | 8 | 
